The source of these data is patent US20110124888A1, “STYRYLBENZOFURAN DERIVATIVES AS INHIBITORS FOR BETA-AMYLOID FIBRIL FORMATION AND PREPARATION METHOD THEREOF” (Korea Institute of Science and Technology, priority 2008, published 2011).

Read-outs that look alike come from different tables or passages of the source.

Data set [1] is described as follows: Passage test through the blood-brain barrier in rats (brain tissue). It is filed as in vivo, SD rats. The conditions noted are these: for Cmax (brain) / Tmax: brain tissue; for Tmax / Kp: SD, rat; for Kp: brain, read-out: AUCBrain/AUC Plasma. As to the method:
(§1) 1) Test Animal and Administration of Test Compound
(§2) Three 7 week-old ICR mice (weight: about 30 g) and three 8 week-old SD rats (weight: about 250 g) were used per test group. A solution prepared by dissolving the compounds of Examples 9 and 17 in excipient (DMSO/Tween 20/saline: 0.1/0.6/2.3, v/v/v) were administered to each experimental animal. The test compound was orally administered in an amount of 10 mL per kg of body weight or intravenously administered in an amount of 5 mL per kg of body weight through the fine vein.
2) Measurement of Concentration in Blood and Tissue (Simultaneous Test)
At 30 min, 1 hr, 2 hr, 4 hr, 10 hr and 24 hr after administration of test compound, the mice and rats were subjected to insufflations narcosis using isoflorane, followed by cutting the abdomen open. 1 mL of blood was collected from abdominal veins into the tube containing heparin (1000 IU/mL, 3 μl). The obtained blood sample was centrifuged at 12,000 rpm, for 2 min to obtain plasma. The obtained plasma was kept in freezer at −80° C. until the analysis.
(2) Organ Tissue-Sampling
The mice and rats from which the blood sample was obtained were subjected to bloodletting, and then, brain tissue of the mice and rats was collected. The brain tissue thus obtained was washed with physiological saline once or twice to remove blood. The weight of the brain tissue was measured after the removal of adipose tissue and peripheral tissue. 4% bovine serum albumin (BSA) solution diluted with 10-fold was added to the brain tissue. The resulting solution was subjected to homogenization using the homogenizer. The diluted homogenate thus obtained was placed in 2 ml of tube and was kept in freezer at −80° C. until the analysis. All of the treatments to the samples were performed in ice.
(§3) The sample was analyzed using LC/MSMS system under the following condition:
(§4) The sample was pretreated as follows:
50 μL of plasma were placed in 2.0 mL of tube having a cap (Eppendorf Co.) and acidified by adding 20 μL of 0.1% formic acid thereto. An internal standard solution and 1 mL of ethyl acetate as an extract solvent were added to the resultant solution. The resultant solution was mixed using thermomixer (Eppendorf Co.) at 1400 rpm for 5 min and then subjected to centrifuge (Eppendorf Co.). The supernatant was collected and concentrated at 35° C. using cyclone. The residue was re-dissolved in 50 μL of moblie phase and 5 μL of the resulting solution was injected into LC/MS and analyzed.
(§5) In Tables 8 and 9, “iv” refers to a intravenous injection; “po” refers to a per oral; “AUC plasma” refers to an area under the plasma level-time curve; “Cmax” refers to a maximum plasma concentration; “Tmax” refers to a time to reach Cmax, “BA” refers to a bioavailability (%) according to Equation 2 below; “AUC Brain” refers to a area under the brain tissue level-time curve; and “AUCBrain/AUCPlasma” refers to a passage rate of the test compound to the brain.

Data set [2] can be described thus: Pharmacokinetics test in mice (plasma). Conditions: for AUC / Cmax / Tmax: ICR, mouse, plasma; for AUC / Cmax / Tmax / BA: mice; for AUC: n = 3; for AUC (in words) / bioavailability (in words): mice and rats, Tables 8 and 9; for BA: 2.5 mg/kg po vs 1.25 mg/kg iv. The class given is in vivo, ICR mice. As to the method:
as §1, §2
2) Blood Concentration Test
At 30 min, 1 hr, 2 hr, 4 hr, 10 hr and 24 hr after oral administration of the test compounds, the blood was collected from periorbital veins into the tube containing heparin (1000 IU/mL, 3 μl) for the mice, and from jugular vein for rats. The blood sample was centrifuged at 12,000 rpm for 2 min to obtain plasma. The obtained plasma was kept in freezer at −80° C. until the analysis.
as §3, §4
50 μL of plasma was placed in 2.0 mL of tube having a cap (Eppendorf Co.) and acidified by adding 20 μL of 0.1% formic acid thereto. An internal standard solution and 1 mL of ethyl acetate as an extract solvent were added to the resultant solution. The resultant solution was mixed using thermomixer (Eppendorf Co.) at 1400 rpm for 5 min, and then subjected to centrifuge (Eppendorf Co.). The supernatant was collected and concentrated at 35° C. using cyclone. The residue was re-dissolved in 50 μL of moblie phase and 5 μL of the resulting solution was injected into LC/MS and analyzed.
as §5
Bioavailability (%)=[(AUCpo/AUCiv)×(Doseiv/Dosepo)×100] Equation 2
wherein, AUCpo means an area under the blood concentration time curve (AUC) after the per oral administration, AUCiv means an AUC after the intravenous injection, Doseiv means an amount of the intravenous injection, and Dosepo means an amount of the per oral administration.

A further data set concerns the target T1, beta-amyloid 42 (Aβ42) (Homo sapiens, UniProt P05067).
T1 construct: Beta-amyloid 42 (Aβ42) was dissolved in dimethylsulfoxide (DMSO)
Put plainly: Inhibitory effect on the formation of beta-amyloid fibrils in vitro (ThT fluorescence assay). The class given is biochemical. The conditions noted are these: for inhibition at 10 µM: 10 μM compound, Aβ42 25 μM, read-out: % Inhibition (10 μM); for IC50: In vitro ThT analysis (Aβ42: 25 μM); for % inhibition against the beta-amyloid 42 formation compared with curcumin: Tables 1 to 6, relative to curcumin.

T1 sequence (P05067 672-713 limits assumed): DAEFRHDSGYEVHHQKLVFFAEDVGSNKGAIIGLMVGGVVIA

With `COc1ccc2cc(C=Cc3ccc(N(C)C)cc3)oc2c1` [Compound 9, 6-methoxy-2-(4-dimethylaminostyryl)benzofuran], in data set [1] (1.25 mg/kg, iv), the “AUC Brain” value is 17939.63 ng·h/mL and the Kp is 11. For the same molecule, in data set [1] (2.5 mg/kg, po), the “AUC Brain” value worked out at 15241.92 ng·h/mL, the “Cmax (brain)” value was 1309.00 ng/mL, the Tmax was 2 h and the Kp turned out to be 16.8. Further, the AUC in data set [2] (1.25 mg/kg, iv) was 503 ng·h/mL. Besides, in data set [2] (2.5 mg/kg, po), the peak concentration (Cmax) came out at 172 ng/mL, the Tmax was 0.83 h and the AUC turned out to be 646 ng·h/mL. Besides, in data set [2], the “AUC (in words)” value is given as “high degree of AUC”, the “bioavailability (in words)” value is “superior bioavailability” and the BA was determined as 64.2%. Also, on beta-amyloid 42 (Aβ42) (experiment of Table 7), the inhibition at 10 µM was determined as 78.7% and half-maximal inhibition (IC50) required 972 nM. The molecule further gave an IC50 against beta-amyloid 42 (Aβ42) (experiment of Table 1) of 70 nM. On beta-amyloid 42 (Aβ42), the “% inhibition against the beta-amyloid 42 formation compared with curcumin” value is listed as “superior % inhibition”.

Consider `CNc1ccc(C=Cc2cc3cc(OC)ccc3o2)cc1` [Compound 17, 5-methoxy-2-(4-methylaminostyryl)benzofuran], for which, in data set [1] (1.25 mg/kg, iv), the “AUC Brain” value was found to be 8740.33 ng·h/mL and the Kp came to 7.6. Also, in data set [1] (2.5 mg/kg, po), the “AUC Brain” value worked out at 11237.67 ng·h/mL, the “Cmax (brain)” value was 1406.67 ng/mL, the Tmax is 1.67 h and the Kp turned out to be 21.8. This molecule had an AUC in data set [2] (1.25 mg/kg, iv) of 237 ng·h/mL. Besides, in data set [2] (2.5 mg/kg, po), the Cmax turned out to be 96.5 ng/mL, the time of peak concentration (Tmax) is 0.83 h and the AUC is 326 ng·h/mL. Further, in data set [2], the “AUC (in words)” value is reported as “high degree of AUC”, the “bioavailability (in words)” value is on record as “superior bioavailability” and the BA came to 68.8%. Besides, on beta-amyloid 42 (Aβ42) (experiment of Table 7), the inhibition at 10 µM was determined as 74.6% and inhibition was half-maximal at 725 nM (IC50). The same molecule showed an IC50 on beta-amyloid 42 (Aβ42) (experiment of Table 1) of 78 nM. In addition, at beta-amyloid 42 (Aβ42), the “% inhibition against the beta-amyloid 42 formation compared with curcumin” value is “superior % inhibition”.
